Assay results: patent US20120239131A1, “METHODS AND APPARATUS FOR TREATMENT OF ANEURYSMAL TISSUE” (Medtronic Vascular, Inc., priority 2011, published 2012)

Key:
ACE = ACE (Homo sapiens, UniProt P12821); conditions: in vitro; cited from earlier work
[1] = cited from earlier work
[2] = cited from earlier work; remark: listed apart in the source
[3] = test system: genes involved in the pathophysiology of AAA; assay: Drug inhibition effect on differentially expressed genes, overall; type: in vivo, ApoE−/− mice; conditions: sum of heat map grades over 25 genes; ApoE−/− + Ang II group scored 55
Protocol: (§1) ApoE−/− mice used in this study were divided into different pretreatment groups: 1) Fluvastatin-MF; 2) Doxycycline-MD; 3) Irbesartan-MI; 4) Telmisartan-MT; 5) Control (water) and fed medicated chow or medicated drinking water 1 week prior to pump implantation. AngII (1000 ng·kg^−1 of body weight·min^−1) was infused subcutaneously via Alzet mini-osmotic pumps for 28 days. All mice were maintained on the medicated chow (MI & MT) or medicated drinking water (MF & MD) treatments which were delivered daily for a total of 28 days following pump implantation.
(§2) In order to determine the effect of the various treatments on the progressive enlargement of the experimental AAAs the mice were followed with high frequency trans-abdominal ultrasound. Maximum aortic diameter was measured and recorded prior to pump implantation and then at 3, 7, 14, 21, and 28 days. All mice were sacrificed 28 days after pump implantation. Aortae were harvested and subjected to either histological analysis (Elastic Masson trichome, MAC2, CD31 and TUNEL staining) and analysis of mural gene expression. Plasma drug concentrations of experimental compounds were quantified on the day of sacrifice using high performance liquid chromatography (HPLC).
(§3) Total RNA was extracted from homogenized aortas using the Qiazol lysis reagent and RNeasy Lipid Tissue Mini kit. DNAse treatment was included in the procedure. RNA concentration was determined utilizing the Quant iT RNA assay kit. Complimentary deoxyribonucleic acid (cDNA) was synthesized from 1 μg RNA using High reverse cDNA transcription kit. Briefly the reaction tubes containing RNA, reverse transcriptase, buffer, RNAse inhibitor, and nuclease free water were incubated at 25° C. for 10 minutes to allow annealing. Reverse transcription was performed at 37° C. for 120 min, followed by a 5 sec incubation at 85° C. to inactivate the reverse transcriptase enzyme. The cDNA samples were cooled at 4° C. and stored at −80° C. until further use.
(§4) Real time PCR was performed using a 384-well Taqman low density array (TLDA) card. Each sample specific PCR mix contained 50 ng of total RNA converted to cDNA. The PCR reaction for Taqman assays contained 50 μl Master Mix (Taqman Universal PCR Master Mix,) and 50 ul of cDNA and RNAase free water. Assays were performed to include appropriate controls (no template control). The RT-PCR protocol included an initial step of 50° C. (2 minutes) […], denaturation by a hot start at 95° C. for 10 min, followed by 40 cycles of a 2 step program (denaturation at 95° C. for 15 secs for primer annealing/extension at 60° C. for 1 min). Fluorescence data was collected at 60° C. Fluorescence was quantified with ABI PRISM 7900HT Sequence Detection System. To verify amplification of a specific target cDNA, data generated was analyzed using SDS 2.2.3 software (Sequence Detection System Software, Applied Biosystems). For all amplification plots, the baseline data were set with the automatic CT function available with SDS 2.2.3 calculating the optimal baseline range and threshold value by using the AutoCT algorithm. According to the manufacturer's instruction, a CT value of ≧39 corresponds to nonspecific amplification marking the limits of detection. For endogenous control GAPDH was normalized to B2M. For relative quantification (RQ), pooled ApoE−/− control was used as the calibrator (with expression equal to 1).

Rac2 = assay: Aortic mural gene expression, RT-PCR (TLDA); type: in vivo, ApoE−/− mice; conditions: fold change over ApoE−/− control; aorta, 28 days Ang II infusion
Protocol: as §1, §2, §3, §4

CCL2 = assay: Aortic mural gene expression, RT-PCR (TLDA); type: in vivo, ApoE−/− mice; conditions: fold change over ApoE−/− control; aorta, 28 days Ang II infusion
Protocol: as §1, §2, §3, §4

IL-7 = assay: Aortic mural gene expression, RT-PCR (TLDA); type: in vivo, ApoE−/− mice; conditions: fold change over ApoE−/− control; aorta, 28 days Ang II infusion
Protocol: as §1, §2, §3, §4

MMP-12 = assay: Aortic mural gene expression, RT-PCR (TLDA); type: in vivo, ApoE−/− mice; conditions: fold change over ApoE−/− control; aorta, 28 days Ang II infusion
Protocol: as §1, §2, §3, §4

ITGAL = assay: Aortic mural gene expression, RT-PCR (TLDA); type: in vivo, ApoE−/− mice; conditions: fold change over ApoE−/− control; aorta, 28 days Ang II infusion
Protocol: as §1, §2, §3, §4

Runx3 = assay: Aortic mural gene expression, RT-PCR (TLDA); type: in vivo, ApoE−/− mice; conditions: fold change over ApoE−/− control; aorta, 28 days Ang II infusion
Protocol: as §1, §2, §3, §4

TNF-α = assay: Aortic mural gene expression, RT-PCR (TLDA); type: in vivo, ApoE−/− mice; conditions: fold change over ApoE−/− control; aorta, 28 days Ang II infusion
Protocol: as §1, §2, §3, §4

TIMP2 = assay: Aortic mural gene expression, RT-PCR (TLDA); type: in vivo, ApoE−/− mice; conditions: fold change over ApoE−/− control; aorta, 28 days Ang II infusion
Protocol: as §1, §2, §3, §4

MAPK8 = assay: Aortic mural gene expression, RT-PCR (TLDA); type: in vivo, ApoE−/− mice; conditions: fold change over ApoE−/− control; aorta, 28 days Ang II infusion
Protocol: as §1, §2, §3, §4

Vav1 = assay: Aortic mural gene expression, RT-PCR (TLDA); type: in vivo, ApoE−/− mice; conditions: fold change over ApoE−/− control; aorta, 28 days Ang II infusion
Protocol: as §1, §2, §3, §4

Cathepsin S = assay: Aortic mural gene expression, RT-PCR (TLDA); type: in vivo, ApoE−/− mice; conditions: fold change over ApoE−/− control; aorta, 28 days Ang II infusion
Protocol: as §1, §2, §3, §4

LOX = assay: Aortic mural gene expression, RT-PCR (TLDA); type: in vivo, ApoE−/− mice; conditions: fold change over ApoE−/− control; aorta, 28 days Ang II infusion
Protocol: as §1, §2, §3, §4

HMOX 1 = assay: Aortic mural gene expression, RT-PCR (TLDA); type: in vivo, ApoE−/− mice; conditions: fold change over ApoE−/− control; aorta, 28 days Ang II infusion
Protocol: as §1, §2, §3, §4

CCR2 = assay: Aortic mural gene expression, RT-PCR (TLDA); type: in vivo, ApoE−/− mice; conditions: fold change over ApoE−/− control; aorta, 28 days Ang II infusion
Protocol: as §1, §2, §3, §4

Osteopontin = assay: Aortic mural gene expression, RT-PCR (TLDA); type: in vivo, ApoE−/− mice; conditions: fold change over ApoE−/− control; aorta, 28 days Ang II infusion
Protocol: as §1, §2, §3, §4

ITGB2 = assay: Aortic mural gene expression, RT-PCR (TLDA); type: in vivo, ApoE−/− mice; conditions: fold change over ApoE−/− control; aorta, 28 days Ang II infusion
Protocol: as §1, §2, §3, §4

CXCR4 = assay: Aortic mural gene expression, RT-PCR (TLDA); type: in vivo, ApoE−/− mice; conditions: fold change over ApoE−/− control; aorta, 28 days Ang II infusion
Protocol: as §1, §2, §3, §4

CCR5 = assay: Aortic mural gene expression, RT-PCR (TLDA); type: in vivo, ApoE−/− mice; conditions: fold change over ApoE−/− control; aorta, 28 days Ang II infusion
Protocol: as §1, §2, §3, §4

MMP-8 = assay: Aortic mural gene expression, RT-PCR (TLDA); type: in vivo, ApoE−/− mice; conditions: fold change over ApoE−/− control; aorta, 28 days Ang II infusion
Protocol: as §1, §2, §3, §4

Tgfβ1 = assay: Aortic mural gene expression, RT-PCR (TLDA); type: in vivo, ApoE−/− mice; conditions: fold change over ApoE−/− control; aorta, 28 days Ang II infusion
Protocol: as §1, §2, §3, §4

Cathepsin B = assay: Aortic mural gene expression, RT-PCR (TLDA); type: in vivo, ApoE−/− mice; conditions: fold change over ApoE−/− control; aorta, 28 days Ang II infusion
Protocol: as §1, §2, §3, §4

Cybb = assay: Aortic mural gene expression, RT-PCR (TLDA); type: in vivo, ApoE−/− mice; conditions: fold change over ApoE−/− control; aorta, 28 days Ang II infusion
Protocol: as §1, §2, §3, §4

Fibronectin -1 = assay: Aortic mural gene expression, RT-PCR (TLDA); type: in vivo, ApoE−/− mice; conditions: fold change over ApoE−/− control; aorta, 28 days Ang II infusion
Protocol: as §1, §2, §3, §4

CSF1 = assay: Aortic mural gene expression, RT-PCR (TLDA); type: in vivo, ApoE−/− mice; conditions: fold change over ApoE−/− control; aorta, 28 days Ang II infusion
Protocol: (§5) Total RNA was extracted from homogenized aortas using the Qiazol lysis reagent and RNeasy Lipid Tissue Mini kit. DNAse treatment was included in the procedure. RNA concentration was determined utilizing the Quant iT RNA assay kit. Complimentary deoxyribonucleic acid (cDNA) was synthesized from 1 μg RNA using High reverse cDNA transcription kit. Briefly the reaction tubes containing RNA, reverse transcriptase, buffer, RNAse inhibitor, and nuclease free water were incubated at 25° C. for 10 minutes to allow annealing. […] The cDNA samples were cooled at 4° C. and stored at −80° C. until further use.
(§6) Real time PCR was performed using a 384-well Taqman low density array (TLDA) card. Each sample specific PCR mix contained 50 ng of total RNA converted to cDNA. The PCR reaction for Taqman assays contained 50 μl Master Mix (Taqman Universal PCR Master Mix,) and 50 ul of cDNA and RNAase free water. Assays were performed to include appropriate controls (no template control). The RT-PCR protocol included an initial step of 50° C. […] Fluorescence data was collected at 60° C. Fluorescence was quantified with ABI PRISM 7900HT Sequence Detection System. To verify amplification of a specific target cDNA, data generated was analyzed using SDS 2.2.3 software (Sequence Detection System Software, Applied Biosystems). […] For relative quantification (RQ), pooled ApoE−/− control was used as the calibrator (with expression equal to 1).

NFKb1 = assay: Aortic mural gene expression, RT-PCR (TLDA); type: in vivo, ApoE−/− mice; conditions: fold change over ApoE−/− control; aorta, 28 days Ang II infusion
Protocol: as §5, §6

Chain of ACE (P12821 30-1306, species assumed): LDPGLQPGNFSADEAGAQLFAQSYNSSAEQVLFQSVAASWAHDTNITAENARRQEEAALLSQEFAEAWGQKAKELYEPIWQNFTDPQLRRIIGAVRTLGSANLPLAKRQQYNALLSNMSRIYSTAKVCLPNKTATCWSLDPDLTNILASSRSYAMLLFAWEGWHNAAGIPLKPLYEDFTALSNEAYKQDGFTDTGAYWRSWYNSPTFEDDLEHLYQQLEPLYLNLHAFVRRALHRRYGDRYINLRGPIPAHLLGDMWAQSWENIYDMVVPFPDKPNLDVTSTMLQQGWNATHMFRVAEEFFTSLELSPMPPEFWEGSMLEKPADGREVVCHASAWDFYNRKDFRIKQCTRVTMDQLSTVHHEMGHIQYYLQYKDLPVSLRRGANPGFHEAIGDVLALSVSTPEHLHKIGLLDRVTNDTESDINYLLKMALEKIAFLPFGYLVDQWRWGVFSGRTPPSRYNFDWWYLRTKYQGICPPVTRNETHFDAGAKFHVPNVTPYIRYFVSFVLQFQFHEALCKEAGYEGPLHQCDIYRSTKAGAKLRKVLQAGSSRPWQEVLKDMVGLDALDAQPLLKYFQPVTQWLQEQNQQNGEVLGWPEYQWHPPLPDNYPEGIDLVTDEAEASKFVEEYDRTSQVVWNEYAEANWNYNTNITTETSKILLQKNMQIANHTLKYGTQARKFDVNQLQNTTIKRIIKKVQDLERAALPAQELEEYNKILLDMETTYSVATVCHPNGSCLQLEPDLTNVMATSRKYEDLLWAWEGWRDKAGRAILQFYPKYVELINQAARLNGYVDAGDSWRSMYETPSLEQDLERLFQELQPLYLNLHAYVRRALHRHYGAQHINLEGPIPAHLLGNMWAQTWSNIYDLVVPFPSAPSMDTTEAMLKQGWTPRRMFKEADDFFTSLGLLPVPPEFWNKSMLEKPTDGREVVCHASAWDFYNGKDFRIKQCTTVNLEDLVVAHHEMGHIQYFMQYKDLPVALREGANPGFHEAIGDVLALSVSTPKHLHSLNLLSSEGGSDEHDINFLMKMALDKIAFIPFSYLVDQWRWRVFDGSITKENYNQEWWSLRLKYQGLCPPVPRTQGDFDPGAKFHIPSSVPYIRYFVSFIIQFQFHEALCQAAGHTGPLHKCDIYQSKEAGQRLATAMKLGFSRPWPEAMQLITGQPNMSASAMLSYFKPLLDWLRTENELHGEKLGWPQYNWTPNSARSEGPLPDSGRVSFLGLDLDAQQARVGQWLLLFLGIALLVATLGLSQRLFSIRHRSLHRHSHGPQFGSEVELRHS

Structure (SMILES): NCCCC[C@H](N[C@@H](CCc1ccccc1)C(=O)O)C(=O)N1CCC[C@H]1C(=O)O [Lisinopril, lisinopril]
- ACE inhibitor potency (in words) (ACE): slightly more potent ACE inhibitor than is enalaprilat
- Time to peak concentrations in the plasma ([1]; after oral administration): about 7 hours

Structure (SMILES): CCOC(=O)[C@H](CCc1ccccc1)N[C@@H](C)C(=O)N1CCC[C@H]1C(=O)O [enalapril]
- ACE inhibitor potency (in words) (ACE): not highly active

Structure (SMILES): C[C@H](CS)C(=O)N1CCC[C@H]1C(=O)O [Captopril, captopril]
- Bioavailability ([1]; given orally): about 75%

Structure (SMILES): CCOC(=O)[C@H](CCc1ccccc1)N[C@@H](C)C(=O)N1CC2(C[C@H]1C(=O)O)SCCS2 [spirapril]
- Route of clearance/elimination ([1]; in vivo): balanced elimination by the liver and kidneys

Structure (SMILES): CCC(=O)O[C@@H](O[P@](=O)(CCCCc1ccccc1)CC(=O)N1C[C@H](C2CCCCC2)C[C@H]1C(=O)O)C(C)C [fosinopril]
- Route of clearance/elimination ([1]; in vivo): balanced elimination by the liver and kidneys

Structure (SMILES): COCCCOc1cc(C[C@@H](C[C@H](N)[C@@H](O)C[C@H](C(=O)NCC(C)(C)C(N)=O)C(C)C)C(C)C)ccc1OC [Aliskiren]
- Half-life in the plasma ([1]; in vivo): approximately 24 hours
- Water solubility [2]: good water solubility

Structure (SMILES): O=C(O)c1cccnc1 [Niacin, nicotinic acid]
- Water solubility [2]: water-soluble

Structure (SMILES): C[C@H]1c2cccc(O)c2C(=O)C2=C(O)[C@]3(O)C(=O)C(C(N)=O)=C(O)[C@@H](N(C)C)[C@@H]3[C@@H](O)[C@@H]21 [Doxycycline]
- Total Score [3]: 53
- Rac2 expression (Rac2): +++ (3.1 to 10 = +++)
- CCL2 expression (CCL2): + (1.1 to 1.5 = +)
- IL-7 expression (IL-7): − (0 to 1 = −)
- MMP-12 expression (MMP-12): ++++ (>10.1 = ++++)
- ITGAL expression (ITGAL): +++ (3.1 to 10 = +++)
- Runx3 expression (Runx3): +++ (3.1 to 10 = +++)
- TNF-α expression (TNF-α): ++ (1.51 to 3 = ++)
- TIMP2 expression (TIMP2): − (0 to 1 = −)
- MAPK8 expression (MAPK8): − (0 to 1 = −)
- Vav1 expression (Vav1): ++ (1.51 to 3 = ++)
- Cathepsin S expression (Cathepsin S): +++ (3.1 to 10 = +++)
- LOX expression (LOX): − (0 to 1 = −)
- HMOX 1 expression (HMOX 1): ++++ (>10.1 = ++++)
- CCR2 expression (CCR2): +++ (3.1 to 10 = +++)
- Osteopontin expression (Osteopontin): ++++ (>10.1 = ++++)
- ITGB2 expression (ITGB2): ++ (1.51 to 3 = ++)
- CXCR4 expression (CXCR4): ++++ (>10.1 = ++++)
- CCR5 expression (CCR5): +++ (3.1 to 10 = +++)
- MMP-8 expression (MMP-8): ++++ (>10.1 = ++++)
- Tgfβ1 expression (Tgfβ1): +++ (3.1 to 10 = +++)
- Cathepsin B expression (Cathepsin B): ++ (1.51 to 3 = ++)
- Cybb expression (Cybb): +++ (3.1 to 10 = +++)
- Fibronectin -1 expression (Fibronectin -1): − (0 to 1 = −)
- CSF1 expression (CSF1): − (0 to 1 = −)
- NFKb1 expression (NFKb1): − (0 to 1 = −)
